This note sets out measurements from US20150164754A1, “ANTI-AGEING COMPOSITION CONTAINING DEHYDROGENATED ABIETIC ACID AS ACTIVE INGREDIENT” (AMOREPACIFIC CORPORATION, priority 2012, published 2015).

Experiment [1] has as its system human normal fibroblasts. The experiment can be described thus: Effect on fibroblast proliferation (MTT). Type of experiment: cell-based. Particulars: 10 μM dehydrogenated abietic acid, 24 hours, relative to group not treated with sample. On the procedure: The effect of dehydrogenated abietic acid (purchased from Ramidus AB) of Formula 1 on wrinkle reduction was measured. In order to examine the effect of dehydrogenated abietic acid on skin cell proliferation that reduces wrinkles, human normal fibroblasts were seeded into a 96-well microplate at a density of 1×10^4 cells/well, and incubated in DMEM (Dulbecco's Modified Eagle's Medium) medium in a CO2 incubator at 36.5° C. for 24 hours. After incubation, in Example 1, the medium was replaced with a serum-free medium containing 10 μM of dehydrogenated abietic acid, and then the cells were further incubated for 24 hours. In Comparative Example 1, cells not treated with dehydrogenated abietic acid were used. Then, 10 μl of (3-(4,5-dimethyl-thiazol-2-yl)2,5-diphenyl tetrazolium (MTT, 5 mg/ml) was added to each well, which was then allowed to stand for 4 hours, followed by removal of the medium. Then, 100 μl of dimethyl sulfoxide solution was added to each well, and the absorbance at 570 nm was measured with a microplate reader. Based on the absorbance measured as described above, the cell proliferation effect was calculated using the following equation. The results of the calculation are shown in Table 1 below. Cell proliferation effect (%)=(absorbance of group treated with sample/absorbance of group not treated with sample)×100 Equation 1

For experiment [2], the system named is human normal fibroblasts. The experiment can be described thus: Effect on stimulation of collagen biosynthesis (PICP kit). It is filed as cell-based. Particulars: 10 μM dehydrogenated abietic acid, 48 hours, supernatant, 50 μg/ml ascorbic acid added. On the procedure: The effect of dehydrogenated abietic acid (purchased from Ramidus AB) of Formula 1 on the stimulation of collagen biosynthesis was measured. In order to examine the effect of dehydrogenated abietic acid on the stimulation of collagen biosynthesis, human normal fibroblasts were seeded into a 96-well microplate at a density of 1×10^4 cells/well, and incubated in DMEM (Dulbecco's Modified Eagle's Medium) medium in a CO2 incubator at 36.5° C. for 24 hours. After incubation, in Example 2, the medium was replaced with a serum-free medium containing 10 μM of dehydrogenated abietic acid, and then the cells were further incubated for 48 hours. In Comparative Example 2, cells not treated with dehydrogenated abietic acid were used. At 24 hours before completion of the incubation, 50 μg/ml of ascorbic acid was added to each well to stimulate collagen synthesis. After completion, each well was washed, and the medium was replaced with serum-free DMEM medium, after which the cells were further incubated for 24 hours. After incubation, the supernatant of each well was collected, and the amount of procollagen type-I C-peptide (PICP) in the supernatant was measured using a kit (Takara, Kyoto, Japan) to determine the amount of newly synthesized collagen. The amount of PICP that is the amount of collagen synthesized is expressed in units of ng/2×10^4 cells in Table 2 below.

Take `CC(C)c1ccc2c(c1)CC[C@H]1[C@](C)(C(=O)O)CCC[C@]21C` [Example 1, dehydrogenated abietic acid]: the “Cell proliferation effect (%)” value in the experiment on human normal fibroblasts [1] came to 60.0%. For the same compound, the “Amount of collagen synthesized (procollagen type-I C-peptide, PICP)” value in the experiment on human normal fibroblasts [2] is recorded as 220 ng/2 × 10^4.
